Source: patent US20220298483A1, “METHOD AND COMPOSITION FOR CHONDROGENESIS” (National Health Research Institutes, priority 2021, published 2022)

Tests used:
[1] = system: N-cadherin/β-catenin interactions in micromass cultured iPSC-MSCs; assay: Proximity ligation assay (PLA) for N-cadherin-β-catenin interaction; type: cell-based, human; conditions: ChBM plus modulator, 1 day (FIG. 5C, 5D)
Protocol: Micromass cultured iPSC-MSCs were used for PLA and performed according to the manufacturer's protocol (Sigma-Aldrich). Antibodies against N-cadherin (Abcam) and β-catenin (BD Biosciences) were used for recognition. After ligation and amplification, the PLA signals from each pair of probes in close proximity (<40 nm) were visualized by confocal microscope (Leica TCS SP5 II) and signal counts were analyzed by Image J.

[2] = system: β-catenin in micromass-cultured iPSC-MSCs; assay: Immunofluorescence quantification of β-catenin expression; type: cell-based, human; conditions: 1 day (FIG. 8)
Protocol: Confocal immunofluorescence microscopy and fluorescence quantification of β-catenin in micromass-cultured iPSC-MSCs with the indicated modulators in chondrogenic induction medium for 1 day. Nuclei are labeled by DAPI. Scale bar, 5 μm. ChBM, chondrogenic basal medium without TGFβ. XAV, Wnt/β-catenin antagonist XAV939. CHIR, Wnt/β-catenin agonist CHIR99021. Data are represented as mean±S.D. *, p<0.05, **, p<0.01, ***, p<0.001.
Immunofluorescent staining was performed as previously reported (Wang et al., 2013). Paraformaldehyde-fixed cell samples were permeabilized with 0.1% Triton X-100 and nonspecific binding was blocked by 5% bovine serum albumin Primary antibodies against alpha smooth muscle actin (αSMA) (Sigma-Aldrich), β-catenin (BD Biosciences, San Jose, Calif., USA) or N-cadherin (Abcam, Cambridge, UK) were stained with 1:100 dilution for 24 hours, followed by species specific secondary antibody incubation overnight. Fluorescent signals were acquired by confocal microscopy (Leica TCS SP5 II, Wetzlar, Germany) and analyzed by Image J (NIH, Maryland, USA).

[3] = system: human MSCs—including iPSC-MSCs, ESC-MSCs and BM-MSCs; assay: 3D pellet culture chondrogenesis in complete chondrogenic medium, Alcian Blue staining and GAG quantification; type: cell-based; conditions: ChM containing TGFβ3, 10 μM; for pellet condensation / pellet integrity: Day 20, all 3 sources of MSCs
Protocol: (§1) In vitro chondrogenic differentiation using 3D pellet culture was performed as described previously (Liu et al., 2011; Wang et al., 2018; Yen et al., 2013), 2×10^5 trypsinized were centrifuged 450×g for 10 minutes to form a pellet in expansion medium. After 16 hours, the medium was changed to chondrogenic basal medium (ChBM) consisting of low-glucose DMEM supplemented with 100 units/ml penicillin, 100 μg/ml streptomycin (all from Gibco-Thermo Fisher Scientific), 1% Insulin-transferrin-sodium selenite media supplement (Sigma-Aldrich, St Louis, Mo., USA), 2 mM L-glutamine (Gibco-Thermo Fisher Scientific), 10 μM L-Ascorbic acid 2-phosphate (Sigma-Aldrich), 100 nm dexamethasone (Sigma-Aldrich). Addition of TGFβ1 (10 ng/mL; R&D Systems, Minneapolis, Minn., USA), TGFβ3 (10 ng/mL; R&D Systems), XAV939 (XAV; 10 μM; Sigma-Aldrich) or CHIR99021 (CHIR; 10 μM; Sigma-Aldrich) to ChBM was performed as indicated. Cell pellets were harvested at the indicated day for analysis. Micromass culture-based chondrogenic differentiation was performed as previously reported, using 2×10^7 cells/ml of MSCs suspended in expansion medium and 20-μl drops spotted in the center of each well of a 24-well culture plate (Craft et al., 2015; Greco et al., 2011). After adhesion for 1.5 hour in a humidified incubator at 37° C. with 5% CO2, the medium was changed to ChBM with indicated regulators for chondrogenic induction.
Samples were washed with PBS and fixed with 4% paraformaldehyde, followed by pH 1.0 1% Alcian blue 8GX (Sigma-Aldrich) staining at room temperature overnight to detect sulfated proteoglycan matrix (Lev and Spicer, 1964). Quantification of Alcian blue staining extracted with 6M Guanidine-HCl was measured in 650 nm absorbance (Song et al., 2018). […]

[4] = system: pellet-cultured iPSC-MSCs; assay: 3D pellet culture chondrogenic differentiation of iPSC-MSCs, Alcian Blue staining and quantification; type: cell-based, human; conditions: for pellet condensation and Alcian Blue staining compared to ChBM: ChBM plus modulator (10 ng/mL TGFβ3, 10 μM CHIR or XAV), 20 days (FIG. 3A top); for quantification of GAG production: Day 10, compared to ChBM and to TGFβ3 (FIG. 3A right)
Protocol: as §1
(§2) Samples were washed with PBS and fixed with 4% paraformaldehyde, followed by pH 1.0 1% Alcian blue 8GX (Sigma-Aldrich) staining at room temperature overnight to detect sulfated proteoglycan matrix (Lev and Spicer, 1964). Quantification of Alcian blue staining extracted with 6M Guanidine-HCl was measured in 650 nm absorbance (Song et al., 2018).

[5] = system: iPSC-MSC pellets; assay: Quantitative real-time PCR of chondrogenic, osteogenic and Wnt downstream genes; type: cell-based, human; conditions: for AXIN2 gene expression: 3 days (FIG. 4C); for COL2A1 gene expression / ACAN gene expression: no TGFβ unless added; for COL2A1 gene expression: Day 3 (FIG. 3C); for ACAN gene expression: Day 3 (FIG. 3D); for collagen 2A1 (COL2A1) gene expression: Day 3 (FIG. 1D); for aggrecan (ACAN) gene expression: Day 3 (FIG. 1E); for RUNX2 mRNA expression compared to ChBM: 10 ng/mL in ChBM, Day 3 (FIG. 2E)
Protocol: as §1
Total RNA was isolated using TRI® reagent (Sigma-Aldrich), and quantified using NanoDrop spectrophotometer (Nyxor Biotech, Paris, France) (Wang et al., 2013). Reverse transcription was performed using RevertAid H Minus reverse transcriptase (Thermo Fisher Scientific), and PCR was performed on ABI PRISM 7500 system (Applied Biosystem, Foster City, Calif., USA) with SYBR Fast qPCR kit (KAPA Biosystems, Boston, Mass., USA). mRNA expression level was calculated by using the ΔΔCt method, and glyceraldehyde 3-phosphate dehydrogenase (GAPDH) level were used as housekeeping control. The results are normalized to ChBM to represent effects of indicated modulators.

[6] = system: β-catenin in iPSC-MSC pellets; assay: Immunofluorescent staining and quantification of nuclear β-catenin; type: cell-based, human; conditions: ChBM plus modulator, 1 day, compared to ChBM or TGFβ3 (FIG. 4A, 4B)
Protocol: as §1, with “Micromass culture-based chondrogenic differentiation was performed as previously reported, using 2×10^7 cells/ml of MSCs suspended in expansion medium and 20-μl drops spotted in the center of each well of a 24-well culture plate (Craft et al., 2015; Greco et al., 2011). After adhesion for 1.5 hour in a humidified incubator at 37° C. with 5% CO2, the medium was changed to ChBM with indicated regulators for chondrogenic induction.” left out
(§3) Immunofluorescent staining was performed as previously reported (Wang et al., 2013). […] Fluorescent signals were acquired by confocal microscopy (Leica TCS SP5 II, Wetzlar, Germany) and analyzed by Image J (NIH, Maryland, USA).

[7] = system: micromass-cultured iPSC-MSCs; assay: Micromass culture chondrogenic differentiation, Alcian Blue staining and quantification; type: cell-based, human; conditions: ChBM plus modulator; for micromass structural condensation and Alcian Blue intensity: Day 10, compared to ChBM and TGFβ3 (FIG. 3B)
Protocol: as §1, §2

[8] = system: Mouse BM-MSCs transplanted subcutaneously into wild-type C57BL/6J mice; assay: In vivo ectopic chondrogenesis, Alcian Blue staining of transplanted MSC pellets; conditions: local injection every 3 days, harvest Day 20 (FIG. 3F)
Protocol: Samples were washed with PBS and fixed with 4% paraformaldehyde, followed by pH 1.0 1% Alcian blue 8GX (Sigma-Aldrich) staining at room temperature overnight to detect sulfated proteoglycan matrix (Lev and Spicer, 1964). Quantification of Alcian blue staining extracted with 6M Guanidine-HCl was measured in 650 nm absorbance (Song et al., 2018). All animal work was performed according to protocols approved by the Institutional Animal Care and Use Committee. In vivo ectopic chondrogenesis was performed as previously reported with modifications (Zhao et al., 2014). Mouse BM-MSCs were cultured as 3D pellets in ChBM alone or with addition of TGFβ3, CHIR, or XAV for 3 days, then subcutaneously transplanted to dorsal skin of wild-type C57BL/6J mice, with local injections of modulators every 3 days till the pellet sample was harvested at Day 20. Collected samples were then frozen in optimal cutting temperature (OCT) compound and sliced to […] in thickness for histological staining.

[9] = system: N-cadherin in iPSC-MSCs cultured as micromass; assay: Immunofluorescent staining of N-cadherin; type: cell-based, human; conditions: ChBM plus modulator, 24 hours, compared to all other conditions (FIG. 5A, 5B)
Protocol: as §1, with “Micromass culture-based chondrogenic differentiation was performed as previously reported, using 2×10^7 cells/ml of MSCs suspended in expansion medium and 20-μl drops spotted in the center of each well of a 24-well culture plate (Craft et al., 2015; Greco et al., 2011). After adhesion for 1.5 hour in a humidified incubator at 37° C. with 5% CO2, the medium was changed to ChBM with indicated regulators for chondrogenic induction.” left out
as §3

[10] = ChBM plus modulator, 3 days (FIG. 4D)

| Molecule | N-cadherin/β-catenin interactions, PLA signals [1] | pellet condensation / pellet integrity [3] | pellet condensation and Alcian Blue staining compared to ChBM [4] | quantification of GAG production ([4]; ChBM plus modulator) | AXIN2 gene expression ([5]; ChBM plus modulator) | RUNX2 gene expression [5, 10] | COL2A1 gene expression ([5]; ChBM plus modulator) | ACAN gene expression ([5]; ChBM plus modulator) | collagen 2A1 (COL2A1) gene expression ([5]; in ChM) | aggrecan (ACAN) gene expression ([5]; in ChM) | RUNX2 gene expression ([5]; in ChM, Day 3 (FIG. 1F)) | nuclear β-catenin levels [6] | micromass structural condensation and Alcian Blue intensity [7] | RUNX2 mRNA expression compared to ChBM [5] | other results |
| --- | --- | --- | --- | --- | --- | --- | --- | --- | --- | --- | --- | --- | --- | --- | --- |
| Cc1c[nH]c(-c2cnc(NCCNc3ccc(C#N)cn3)nc2-c2ccc(Cl)cc2Cl)n1 [CHIR, CHIR99021] | minimal PLA signal detected | decreased pellet integrity | did not undergo condensation but became disintegrated | minimal GAG production | strongly increased | strongly increased | minimal expression | minimal expression | significant downregulation | significant downregulation | the opposite effect | dramatically increased | minimal evidence of any micromass structure or Alcian Blue staining | – | β-catenin expression [2]: strongest expression of β-catenin; SOX9 gene expression ([5]; in ChM, Day 3 (FIG. 1C)): significant downregulation |
| C=C1[C@@H](C)[C@H]2[C@H](Cc3ccccc3)NC(=O)[C@]23[C@H](OC(C)=O)/C=C/[C@@](C)(O)C(=O)[C@@H](C)C/C=C/[C@H]3[C@@H]1O [CytoD, cytochalasin D] | – | – | – | – | – | – | – | – | – | – | – | – | – | – | pellet condensation / structure and chondrogenic differentiation ([4]; 0.25 μM CytoD, 10 μM XAV, Day 10 (FIG. 5F, 5G)): significantly disrupted the condensation process with the pellets completely disintegrated by Day 10 |
| Oc1nc(-c2ccc(C(F)(F)F)cc2)nc2c1CSCC2 [XAV, XAV939] | significantly increase | increased condensation of the pellets | formed well-condensed spheres and strong Alcian Blue staining | significant increases | significantly decreased | significantly decreased | most significantly upregulated | most significantly upregulated | significant upregulation | significant upregulation | decreased expression | lowest nuclear β-catenin levels | better structural condensation and stronger Alcian Blue intensity | – | quantification of glycosaminoglycans (GAGs), Alcian Blue ([3]; 20 days, compared to ChM (FIG. 1A)): significant increase; GAG production by Alcian Blue staining, XAV versus TGFβ3 ([4]; ChBM plus modulator, Day 10 (FIG. 3A bottom)): more rapidly induced; quantitation of GAG production in micromass culture ([7]; Day 10 (FIG. 3B)): highest production of GAG; GAG production in in vivo differentiated samples ([8]; 10 μM): highest level of GAG production; GAG production in vivo compared to TGFβ3 agonism [8]: significantly increased; N-cadherin expression [9]: strongly and most significantly upregulated |
| TGFβ1: pleomorphic growth factor commonly used to induce MSC chondrogenesis (R&D Systems) | – | – | – | – | – | – | – | – | – | – | – | – | – | significantly upregulated | – |
| TGFβ3: pleomorphic growth factor commonly used to induce MSC chondrogenesis (R&D Systems) (protein, UniProt P10600 301-412, looked up) Transforming growth factor …: ALDTNYCFRNLEENCCVRPLYIDFRQDLGWKWVHEPKGYYANFCSGPCPYLRSADTTHSTVLGLYNTLNPEASASPCCVPQDLEPLTILYYVGRTPKVEQLSNMVVKSCKCS | – | – | formed well-condensed spheres and strong Alcian Blue staining | – | increased expression | increased expression | did not increase expression | did not increase expression | – | – | – | – | – | significantly upregulated | – |
